In patent publication US8765809B2, “Ester derivative and use thereof” (Ajinomoto Co., Inc., priority 2006, dated 2014):

Columns and labels:
[1] = Stability of compound: recovery rate (isolation yield) after contact with silica gel (PTLC); type: physicochemical; settings: for recovery at 30 min: PTLC, silica gel stirred with ethyl acetate 30 min, read-out: isolation yield (recovery rate) after PTLC, taken as stability upon contact with silica gel; for stability upon contact with silica gel: isolation and purification by PTLC
Procedure: As mentioned above, the reaction yields of the compounds of respective Examples were determined by applying the products obtained by a condensation reaction to PTLC and stirring the silica gel containing the object compound with ethyl acetate for 30 min, followed by filtration and concentration under reduced pressure. Since the condensation reaction proceeds at a conversion rate of not less than 90% for all compounds, the recovery rate (yield) of each compound is considered to reflect stability upon contact of the compound with the silica gel.
Using vanillyl alcohol (1.70 g, 11.0 mmol) instead of homovanillyl alcohol, and n-decanoic acid (1.72 g, 10 mmol) instead of 8-methylnonanoic acid in Example 1, similar reaction was performed. The residue was purified by PTLC to find that the yield of the obtained vanillyl decanoate was 1.33 g (4.31 mmol, 43.1%), and vanillyl decanoate was decomposed (i.e., unstabilized) by the contact with silica gel.

[2] = test system: auricle of hairless mouse; experiment: Measurement of external blood circulation enhancing action: vasodilatory effect (red spots) after application to the ear; type: in vivo, hairless mouse (HR-1, female); design: key to Vasodilatory effect for hairless mouse (red spots) / Vasodilatory effect on hairless mouse (red spots): O: clear red spots is confirmed; Δ: weak red spots is confirmed; x: no development of red spots; settings: for Vasodilatory effect for hairless mouse (red spots): 5 wt % (liquid paraffin), first column of Table 2; for vasodilatory / blood circulation enhancing effect, summary in words: summary of Tables 2 to 4; for Vasodilatory effect on hairless mouse (red spots) / weak red spots were observed at, time after application: 5 wt % (ethanol)
Source text: The compound of each Example, capsinoid derivative and capsaicin were compared for vasodilatory effect using auricle of hairless mouse. A sample was applied to the right ear of hairless mouse (HR-1, female), and a control was applied to the left ear. […]

[3] = Solubility of sample in liquid paraffin (note to Table 2); type: physicochemical; settings: 5 wt % in liquid paraffin
[4] = application of 5 wt % in liquid paraffin

SMILES	recovery at 30 min [1] [%]	stability upon contact with silica gel [1]	Vasodilatory effect for hairless mouse (red spots) [2]	blood circulation enhancing effect (note, words) [2, 4]	red spots disappeared in [2, 4]	vasodilatory / blood circulation enhancing effect, summary in words [2]	Vasodilatory effect on hairless mouse (red spots) [2]	weak red spots were observed at, time after application [2]	solubility (note, words) [3]
COc1cc(CCOC(=O)CCCCCCC(C)C)ccc1O [compound I, homovanillyl 8-methylnonanoate]	93.2	far stabler than vanillyl decanoate	Δ	effect was weak and	disappeared in 1 hr	weak blood circulation enhancing effect			
COc1cc(CCOC(=O)CCCCCC(C)C)ccc1O [compound I-1, homovanillyl 7-methyloctanoate]			x			weak blood circulation enhancing effect	Δ	Weak red spots were observed at 20 min	sparingly soluble, thus red
COc1cc(CCOC(=O)CCCCC(C)C)ccc1O [compound I-2, homovanillyl 6-methylheptanoate]			x			weak blood circulation enhancing effect	Δ	Weak red spots were observed at 20 min	sparingly soluble, thus red
COc1cc(CCOC(=O)CCCC(C)C)ccc1O [compound I-3, homovanillyl 5-methylhexanoate]			x			weak blood circulation enhancing effect	Δ	Weak red spots were observed at 20 min	sparingly soluble, thus red
COc1cc(CO)ccc1O [vanillyl alcohol, reference compound]			x	Application of 5 wt %: no blood			x		
CCCCCCCCCC(=O)OCc1ccc(O)c(OC)c1 [vanillyl decanoate, reference compound]	43.1	decomposed							
